Test results as given in paper PMC9458935, “Modulation of type 1 cannabinoid receptor activity by cannabinoid by-products from Cannabis sativa and non-cannabis phytomolecules” (Frontiers in Pharmacology, 2022).
Where two headings read alike, the source gives them in different places.

Experiments:
hCB1R [1] = target: T1, hCB1R (Homo sapiens, UniProt P21554); assay: cell-based; type: cell-based
male C57BL/6 mice [2] = assay: Catalepsy, bar holding assay; type: in vivo, mouse; settings: 5 min post-injection; for catalepsy: 10 mg/kg i.p., male mice; for effect on ∆9-THC-dependent catalepsy: 10 mg/kg phytomolecule + 10 mg/kg ∆9-THC i.p.
Experimental: (§1) Male C57BL/6 mice between 8 and 12 weeks of age were used for these studies. Animals were group housed at the Laboratory Animal Services Unit (LASU) at the University of Saskatchewan (3 animals/cage) with a standard 12:12 light-dark cycle, ad libitum access to food and water, and environmental enrichment. Compounds were prepared in the vehicle [ethanol and cremophor in saline (1:1:8)] and administered intraperitoneally (i.p.). Catalepsy was assessed in the bar holding assay 5 min after compound administration with animals placed so that their forepaws clasped a 0.7-cm ring clamp 4.5 cm above the surface of the testing space ([Garai et al., 2020]). The length of time the ring was held was recorded up to 60 s (i.e., percent maximum possible effect [MPE] 60 s) with the trial ending if the mouse turned its head or body or made three consecutive escape attempts. Body temperature was measured 15 min after compound administration by using a rectal thermometer. Anti-nociceptive effects were measured in warm water (52 ± 2°C) using the tail-flick test 20 min after compound administration to a maximum of 20 s (i.e., percent maximum possible effect [MPE] 20 s). Compounds were administered at the doses indicated. Experimenters were blinded to treatment for all behavioral assessments and analyses. Animals were purchased, rather than bred, to reduce animal numbers. In all cases, experiments were performed with the approval of the University Animal Care Committee (UACC) at the University of Saskatchewan and in keeping with the guidelines of the Canadian Council on Animal Care (CCAC).

male C57BL/6 mice [3] = assay: Body temperature, rectal thermometer; type: in vivo, mouse; settings: 15 min post-injection; for body temperature: 10 mg/kg i.p., male mice; for effect on ∆9-THC-dependent change of body temperature: 10 mg/kg phytomolecule + 10 mg/kg ∆9-THC i.p.
Experimental: as §1

hCB1R [4] = target: T1, hCB1R; assay: biochemical; type: binding
hCB1R [5] = target: T1, hCB1R; assay: cell-based; type: cell-based; remark: listed apart in the source
male C57BL/6 mice [6] = assay: Anti-nociception, warm water tail-flick test; type: in vivo, mouse; settings: 20 min post-injection; for anti-nociceptive effect, tail-flick: 10 mg/kg i.p., male mice; for effect on ∆9-THC-dependent anti-nociception, tail-flick: 10 mg/kg phytomolecule + 10 mg/kg ∆9-THC i.p.
Experimental: as §1

[7] = CHO-K1, read-out: cAMP inhibition Emax
[8] = CHO-K1, read-out: βarrestin2 recruitment Emax
[9] = CHO-K1; read-out: cAMP inhibition Emax
[10] = co-treatment with 100 nM ∆9-THC
[11] = compound alone; 10 µM forskolin, 90 min; value with 95% CI; read-out: cAMP inhibition EC50
[12] = CHO-K1; read-out: βarrestin2 recruitment Emax
[13] = compound alone; 90 min; value with 95% CI; read-out: βarrestin2 recruitment EC50

T1 sequence (P21554 whole entry): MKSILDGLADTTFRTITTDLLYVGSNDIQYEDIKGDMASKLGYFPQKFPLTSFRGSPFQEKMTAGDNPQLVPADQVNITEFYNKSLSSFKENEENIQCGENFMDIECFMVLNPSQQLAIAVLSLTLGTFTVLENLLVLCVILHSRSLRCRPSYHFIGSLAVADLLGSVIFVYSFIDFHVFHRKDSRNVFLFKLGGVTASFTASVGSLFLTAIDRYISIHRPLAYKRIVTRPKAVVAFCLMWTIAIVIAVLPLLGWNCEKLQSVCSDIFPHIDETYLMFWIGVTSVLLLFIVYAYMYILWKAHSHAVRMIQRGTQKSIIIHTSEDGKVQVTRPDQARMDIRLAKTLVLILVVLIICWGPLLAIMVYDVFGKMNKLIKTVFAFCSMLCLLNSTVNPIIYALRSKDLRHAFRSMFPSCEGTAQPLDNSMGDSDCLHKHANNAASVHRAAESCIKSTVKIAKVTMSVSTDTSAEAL

Row | SMILES | effect on cAMP inhibition by 100 nM ∆9-THC (hCB1R [1]) | Emax (hCB1R [1]; [7]) [%] | catalepsy (male C57BL/6 mice [2]) | body temperature (male C57BL/6 mice [3]) | [3H]CP55,940 Emin (hCB1R [4]) [%] | Emax (hCB1R [5]; [8]) [%] | anti-nociceptive effect, tail-flick (male C57BL/6 mice [6]) | Ki (hCB1R [4]) [µM] | Emax (hCB1R [1]; [9]) [%] | effect on cAMP inhibition by 100 nM ∆9-THC (hCB1R [1]; [10]) | effect on [3H]CP55,940 displacement by 100 nM ∆9-THC (hCB1R [4]) | Emax (hCB1R [5]; [12]) [%] | further results
1 | CCCCCc1cc(O)c2c(c1)OC(C)(C)[C@@H]1CCC(CO)=C[C@@H]21 [11-OH-∆^9-THC] | inhibited the activity of 100 nM ∆^9-THC in a concentration-dependent manner | 28 ± 3.9 | equal catalepsy | greater hypothermia | 70 ± 1.7 | 47 ± 9.4 | greater hypothermia and anti-nociceptive responses relative to ∆^9-THC | – | – | – | – | – | EC50 (hCB1R [1]): 0.011 µM; EC50 (hCB1R [5]): > 10 µM; effect on βarrestin2 recruitment by 100 nM ∆9-THC (hCB1R [5]): elevated βarrestin2 recruitment above the activity of 100 nM ∆^9-THC
2 | CCCCCc1cc(O)c2c(c1)OC(C)(C)c1ccc(C)cc1-2 [CBN, cannabinol] | neither ∆^8-THC nor CBN produced a significant change in cAMP inhibition | 64 ± 4.6 | did not produce catalepsy | did not produce catalepsy or reduce body temperature | 71 ± 3.1 | 6.9 ± 0.96 | did not produce such effect | 0.14 | – | – | – | – | EC50 (hCB1R [1]): 0.049 µM; fold less potent than CP55,940 in cAMP inhibition (hCB1R [1]): ~49 x; EC50 (hCB1R [5]): > 10 µM
3 | CCCCCCC(C)(C)c1ccc(C2CC(O)CCC2CCCO)c(O)c1 (centres unmarked) [CP55,940, reference compound] | – | 100 ± 6.2 | – | – | 1.0 ± 4.7 | 100 ± 3.3 | – | – | – | – | – | – | –
4 | COc1cc(/C=C/C(=O)CC(=O)/C=C/c2ccc(O)c(OC)c2)ccc1O [Curcumin, curcumin] | – | – | – | – | 100 ± 2.0 | – | – | > 10 | 6.2 ± 0.76 | inhibited the activity of 100 nM ∆^9-THC in a concentration-dependent manner | did not significantly alter [^3H]CP55,940 displacement | 8.9 ± 2.2 | EC50 (hCB1R [1]; [11]): > 10 µM; effect on ∆9-THC-dependent catalepsy (male C57BL/6 mice [2]): capable of blocking ∆^9-THC’s effects on catalepsy; effect on ∆9-THC-dependent change of body temperature (male C57BL/6 mice [3]): capable of blocking ∆^9-THC’s effects on catalepsy and body temperature; EC50 (hCB1R [5]; [13]): > 10 µM; effect on ∆9-THC-dependent anti-nociception, tail-flick (male C57BL/6 mice [6]): blocked ∆^9-THC’s effect in the nociception test
5 | O=C(O[C@@H]1Cc2c(O)cc(O)cc2O[C@@H]1c1cc(O)c(O)c(O)c1)c1cc(O)c(O)c(O)c1 [Egc G, epigallocatechin gallate] | – | – | – | – | 95 ± 3.4 | – | – | > 10 | 5.6 ± 0.52 | inhibited the activity of 100 nM ∆^9-THC in a concentration-dependent manner | augmented the displacement of [^3H]CP55,940 from hCB1R by ∆^9-THC | 7.2 ± 0.85 | EC50 (hCB1R [1]; [11]): > 10 µM; EC50 (hCB1R [5]; [13]): > 10 µM
6 | CCCCCc1cc(O)cc(O)c1 [Olivetol, olivetol] | – | – | – | – | 57 ± 5.5 | – | – | 0.017 | 5.6 ± 1.6 | did not change the cAMP inhibitory effects of 100 nM ∆^9-THC | did not significantly alter [^3H]CP55,940 displacement | 8.3 ± 2.1 | EC50 (hCB1R [1]; [11]): > 10 µM; EC50 (hCB1R [5]; [13]): > 10 µM
7 | CCCCCCCCCCCCCCCC(=O)NCCO [PEA, palmitoylethanolamide] | augmented the activity of 100 nM ∆^9-THC in a concentration-dependent manner | 26 ± 1.8 | – | – | 46 ± 5.3 | 5.6 ± 3.3 | – | > 10 | – | – | did not significantly alter [^3H]CP55,940 displacement | – | concentration at which CB1R- and ∆9-THC-dependent inhibition of cAMP was augmented (hCB1R [1]): approximately 1 μM; type of agonism in cAMP inhibition (hCB1R [1]): weak partial agonist inhibition of cAMP accumulation; effect on ∆9-THC-dependent catalepsy (male C57BL/6 mice [2]): capable of blocking ∆^9-THC’s effects on catalepsy; effect on ∆9-THC-dependent change of body temperature (male C57BL/6 mice [3]): capable of blocking ∆^9-THC’s effects on catalepsy and body temperature; concentration at which [3H]CP55,940 binding was reduced (hCB1R [4]): exceeding 1 μM; concentration at which CB1R- and ∆9-THC-dependent βarrestin2 recruitment was augmented (hCB1R [5]): approximately 1 μM; effect on βarrestin2 recruitment by 100 nM ∆9-THC (hCB1R [5]): slightly increased βarrestin2 recruitment; effect on ∆9-THC-dependent anti-nociception, tail-flick (male C57BL/6 mice [6]): did not block the effect
8 | O=C(/C=C/C=C/c1ccc2c(c1)OCO2)N1CCCCC1 [Piperine, piperine] | – | – | – | – | 37 ± 2.8 | – | – | > 10 | 5.5 ± 0.63 | did not change the cAMP inhibitory effects of 100 nM ∆^9-THC | did not significantly alter [^3H]CP55,940 displacement | 7.9 ± 0.97 | EC50 (hCB1R [1]): > 10 µM; EC50 (hCB1R [5]): > 10 µM
9 | O=c1c(O)c(-c2ccc(O)c(O)c2)oc2cc(O)cc(O)c12 [Quercetin, quercetin] | – | – | – | – | – | – | – | – | – | – | – | – | effect on ∆9-THC-dependent catalepsy (male C57BL/6 mice [2]): capable of blocking ∆^9-THC’s effects on catalepsy; effect on ∆9-THC-dependent change of body temperature (male C57BL/6 mice [3]): capable of blocking ∆^9-THC’s effects on catalepsy and body temperature; effect on ∆9-THC-dependent anti-nociception, tail-flick (male C57BL/6 mice [6]): blocked ∆^9-THC’s effect in the nociception test
10 | CCCCCc1cc(O)c2c(c1)OC(C)(C)C1=C2CC(C)CC1 (centres unmarked) [∆^6a,10a-THC] | – | – | did not produce catalepsy | did not produce catalepsy or reduce body temperature | – | – | did not produce such effect | – | – | – | – | – | –
11 | CCCCCc1cc(O)c2c(c1)OC(C)(C)[C@@H]1CC=C(C)C[C@@H]21 [∆^8-THC] | neither ∆^8-THC nor CBN produced a significant change in cAMP inhibition | 56 ± 9.6 | did not produce catalepsy | did not produce catalepsy or reduce body temperature | 30 ± 5.0 | 21 ± 1.8 | produced an anti-nociceptive effect that was not different from ∆^9-THC | – | – | – | – | – | –
